# Reference: patent publication US7713994B2 (Wyeth LLC, priority 2005, dated 2010)
# Read-outs that look alike come from different tables or passages of the source.
# Columns and labels:
# cyclin D1/cdk 4 enzyme = target: T1, cyclin D1/cdk 4 enzyme (Homo sapiens, UniProt P11802); assay: CDK4 ELISA kinase assay (phospho-Rb ser 795 detection); type: biochemical
# T1 construct: made in house; host or cells: Sf9 insect cells, recombinant baculovirus
# In short: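 GST-Rb C-terminal fragment coated on plates; partially purified Sf9-expressed cyclin D1/CDK4, cyclin E/CDK2 or cyclin B/CDK1 with 200 μM ATP, pH 7.5 HEPES/MgCl2 buffer, 1 h at 30 °C; screen compound final 10 μg/ml. Phospho-Rb Ser795 detected by antibody ELISA (TMB, A450); % of control, IC50 from background-subtracted inhibition curves.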
# cyclin B/CDK1 enzyme = target: T2, cyclin B/CDK1 enzyme (Homo sapiens, UniProt P06493); assay: CDK1 ELISA kinase assay (phospho-Rb ser 795 detection); type: biochemical
# T2 construct: purchased New England BioLabs; host or cells: Sf9 insect cells, recombinant baculovirus
# T2 sequence (P06493 whole entry): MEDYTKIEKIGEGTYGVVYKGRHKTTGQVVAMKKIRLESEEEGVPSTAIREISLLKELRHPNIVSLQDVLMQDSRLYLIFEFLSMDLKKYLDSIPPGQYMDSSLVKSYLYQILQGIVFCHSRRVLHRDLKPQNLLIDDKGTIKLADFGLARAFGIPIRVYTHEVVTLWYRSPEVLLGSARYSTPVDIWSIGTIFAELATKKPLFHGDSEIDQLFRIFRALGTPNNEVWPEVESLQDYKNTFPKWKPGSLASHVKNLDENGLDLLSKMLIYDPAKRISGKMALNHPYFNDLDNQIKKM
# T2 sequence (P14635 whole entry partner): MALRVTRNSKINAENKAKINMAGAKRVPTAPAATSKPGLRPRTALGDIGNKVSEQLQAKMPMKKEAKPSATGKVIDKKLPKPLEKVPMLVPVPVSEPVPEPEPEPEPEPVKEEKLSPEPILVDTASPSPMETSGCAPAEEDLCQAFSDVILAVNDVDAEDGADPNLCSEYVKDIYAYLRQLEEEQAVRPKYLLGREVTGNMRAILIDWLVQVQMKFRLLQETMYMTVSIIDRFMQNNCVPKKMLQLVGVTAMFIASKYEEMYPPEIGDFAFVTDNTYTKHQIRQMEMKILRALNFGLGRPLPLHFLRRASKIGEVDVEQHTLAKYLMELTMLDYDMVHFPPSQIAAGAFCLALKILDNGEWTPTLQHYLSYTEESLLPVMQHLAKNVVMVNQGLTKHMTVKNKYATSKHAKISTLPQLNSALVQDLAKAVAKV
# Description: (§1) • 1. High-binding ELISA microtiter plates (Costar) were coated with 40 μl of the kinase substrate (GST fusion of C-terminal fragment of the retinoblastoma susceptibility gene product) diluted to 10 μg/ml in tris-buffered saline (TBS), overnight at 4° C. • 2. Non-specific binding sites were blocked for 1 hour at 4° C. with Superblock in TBS (Pierce), and the plates rinsed with water. • 3. For the screen, 1.5 μl of test compound (200 μg/ml stock in 20% DMSO/20 mM HEPES, pH 7.5) was added to each well. Final dose of the test compound in the assay was 10 ug/ml. […] The kinase reaction (30 μl) was dispensed into each well. Reactions contained 200 μM ATP, 0.5 mg/ml bovine serum albumin (BSA; Sigma), and 0.5 μl partially purified cyclin D1/cdk 4 enzyme*. The enzyme complex is expressed in insect cells (Sf9) infected with recombinant baculovirus and partially purified using ammonium sulfate fractionation. Reaction volumes were adjusted to 30 μl with kinase assay buffer (50 mM HEPES, pH 7.5, 10 mM MgCl2, 5% glycerol, 10 mM 2-mercaptoethanol). • *: For CDK2 assay, 1.0 μl cyclin E/CDK2 enzyme (diluted 1:1000 in kinase assay buffer) was used. The enzyme is isolated from insect cells (Sf9) infected with recombinant baculovirus and partially purified using ammonium sulfate fractionation. For CDK1 assay, 0.08 μl cyclin B/CDK1 enzyme [New England BioLabs; the enzyme is isolated from insect cells (Sf9) infected with recombinant baculovirus carrying human cdc 2 and human cyclin B] was used.
# (§2) […] • 5. Plates were incubated at 30° C. for 1 hour. • 6. The reaction mixture was removed by aspiration and replaced with 250 μl TBS containing 0.1% Tween-20 and 5% nonfat dry milk (blocking buffer). The plates were incubated at 4° C. for 1 hour. • 7. The blocking buffer was removed and replaced with 50 μl of the primary antibody [anti-phospho-Rb ser 795 (New England BioLabs) diluted 1:1000 in blocking buffer]. Incubation was at 4° C. for 16-20 hours. • 8. The wells were rinsed 3 times with 250 μl of TBS containing 0.1% Tween-20 followed by the addition of 50 μl of secondary antibody [anti-rabbit IgG conjugated to horseradish peroxidase (Amersham Life Science) diluted 1:1000 in blocking buffer]. • 9. After a 1 hour incubation at room temperature, the wells were rinsed 3 times with 250 μl of TBS/0.1% Tween 20. • 10. TMB (3,3′,5,5′-tetramethylbenzidine dihydrochloride) substrate solution (100 μl; Pierce) was added to each well and the color development reaction allowed to proceed 5-10 minutes at room temperature with shaking. The reaction was stopped by the addition of 2N sulfuric acid (100 μl) and the absorbance values read at 450 nm in a microplate reader (Molecular Devices). Analysis of Results: • 1. The percentage of the absorbance value in wells containing the test compound relative to control wells (no test agent) was determined. • 2. IC50 values of selected compounds were determined from inhibition curves, after subtracting background values (no substrate).
# BT474 = assay: Cytotoxicity assay (SRB), BT474; type: cell-based; details: read-out: In Vitro Cellular Activity IC50 BT474
# In short: (§3)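 Cells seeded overnight at 37 °C, 7% CO2 (BT474 12000, HCT-116 4000, LoVo and MCF-7 6000 cells/well) in RPMI 1640 with 5% FBS, then exposed to compound dilutions for 3 days (BT474 6 days). Survival versus untreated controls by TCA fixation and SRB staining, absorbance 540 nm.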
# HCT-116 = assay: Cytotoxicity assay (SRB), HCT-116; type: cell-based; details: read-out: In Vitro Cellular Activity IC50 HCT116
# In short: as §3
# LoVo = assay: Cytotoxicity assay (SRB), LoVo; type: cell-based; details: read-out: In Vitro Cellular Activity IC50 LOVO
# In short: as §3
# MCF-7 = assay: Cytotoxicity assay (SRB), MCF-7; type: cell-based; details: read-out: In Vitro Cellular Activity IC50 MCF-7
# In short: as §3
# cyclin E/CDK2 enzyme = target: T3, cyclin E/CDK2 enzyme (Homo sapiens, UniProt P24941); assay: CDK2 ELISA kinase assay (phospho-Rb ser 795 detection); type: biochemical; details: In Vitro Enzyme Assay, cyclin E/CDK2, read-out: CDK2 IC50
# T3 construct: made in house; host or cells: Sf9 insect cells, recombinant baculovirus
# Description: as §1, §2
# [1] = In Vitro Enzyme Assays, 200 μM ATP, read-out: CDK4 IC50
# [2] = In Vitro Enzyme Assays, read-out: CDK1 IC50
# [3] = Homo sapiens, BT-474, 144 h, BT474 cells, SRB, 6 days
# [4] = Homo sapiens, HCT-116, 72 h, HCT116 cells, SRB, three days
# [5] = Homo sapiens, LoVo, 72 h, LoVo cells, SRB, three days
# [6] = Homo sapiens, MCF7, 72 h, MCF-7 cells, SRB, three days
# [7] = In Vitro Enzyme Assay, cyclin D1/cdk 4, read-out: CDK4 IC50
# [8] = Homo sapiens, BT-474, 144 h, BT474 cells, 6 days, SRB
# [9] = Homo sapiens, HCT-116, 72 h, HCT116 cells, 3 days, SRB
# [10] = Homo sapiens, LoVo, 72 h, LoVo cells, 3 days, SRB
# [11] = Homo sapiens, MCF7, 72 h, MCF-7 cells, 3 days, SRB
# [12] = In Vitro Enzyme Assay, cyclin B/CDK1, read-out: CDK1 IC50
# T1 sequence (P11802 whole entry, species assumed): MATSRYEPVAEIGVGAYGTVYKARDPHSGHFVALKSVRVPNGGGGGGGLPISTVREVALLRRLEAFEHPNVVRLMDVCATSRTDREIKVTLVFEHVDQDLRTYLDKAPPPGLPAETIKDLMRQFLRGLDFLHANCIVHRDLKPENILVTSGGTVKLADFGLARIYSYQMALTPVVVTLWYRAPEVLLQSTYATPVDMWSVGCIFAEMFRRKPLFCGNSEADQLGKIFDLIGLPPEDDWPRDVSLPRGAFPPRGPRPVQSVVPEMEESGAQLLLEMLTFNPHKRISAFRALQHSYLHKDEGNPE
# T1 sequence (P24385 whole entry partner, species assumed): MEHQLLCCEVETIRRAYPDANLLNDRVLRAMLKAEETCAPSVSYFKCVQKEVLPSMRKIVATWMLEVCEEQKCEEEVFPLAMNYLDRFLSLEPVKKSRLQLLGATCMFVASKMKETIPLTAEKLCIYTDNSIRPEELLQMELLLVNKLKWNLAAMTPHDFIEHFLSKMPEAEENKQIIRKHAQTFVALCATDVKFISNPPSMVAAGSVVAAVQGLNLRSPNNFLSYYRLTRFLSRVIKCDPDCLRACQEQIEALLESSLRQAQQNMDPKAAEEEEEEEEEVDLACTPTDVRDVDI
Compound,IC50 (cyclin D1/cdk 4 enzyme; [1]) [µM],IC50 (cyclin B/CDK1 enzyme; [2]) [µM],IC50 (BT474; [3]) [µM],IC50 (HCT-116; [4]) [µM],IC50 (LoVo; [5]) [µM],IC50 (MCF-7; [6]) [µM],IC50 (cyclin D1/cdk 4 enzyme; [7]) [µM],IC50 (BT474; [8]) [µM],IC50 (HCT-116; [9]) [µM],IC50 (LoVo; [10]) [µM],IC50 (MCF-7; [11]) [µM],other results
"O=C1NC(=O)c2ccc(Br)cc2/C1=C/NCc1ccc(OCCO)c(O)c1 [Example 139, (4Z)-6-Bromo-4-({[3-hydroxy-4-(2-hydroxyethoxy)benzyl]amino}methylene)isoquinoline-1,3(2H,4H)-dione]",0.04,> 50,15,> 50,26,> 50,,,,,,
"O=C1NC(=O)c2ccc(I)cc2/C1=C/NCc1cc(O)c(-c2ccoc2)cc1F [Example 520, 4-[(2-Fluoro-4-furan-3-yl-5-hydroxy-benzylamino)-methylene]-6-iodo-4H-isoquinoline-1,3-dione]",,,,,,,0.01,0.66,1.2,0.9,2.2,IC50 (cyclin E/CDK2 enzyme): 12.1 µM
"Cc1cccc(-c2ccc3c(c2)C(=CNCc2ccc(O)c(O)c2)C(=O)NC3=O)c1 [Example 782, 4-[(3,4-Dihydroxy-benzylamino)-methylene]-6-m-tolyl-4H-isoquinoline-1,3-dione]",,,,,,,2.12,20.3,15.8,15.8,14.3,IC50 (cyclin B/CDK1 enzyme; [12]): > 50 µM
"O=C1NC(=O)c2ccc(I)cc2/C1=C/NCc1ccc(-c2ccco2)c(O)c1 [Example 505, 4-[(4-Furan-2-yl-3-hydroxy-benzylamino)-methylene]-6-iodo-4H-isoquinoline-1,3-dione]",,,,,,,,0.26,0.38,0.27,0.7,IC50 (cyclin E/CDK2 enzyme): 8.4 µM
"C=CCOc1ccc(CN/C=C2\C(=O)NC(=O)c3ccc(Br)cc32)cc1O [Example 149, (4Z)-4-({[4-(Allyloxy)-3-hydroxybenzyl]amino}methylene)-6-bromoisoquinoline-1,3(2H,4H)-dione]",0.33,> 50,12,18,27,> 50,,,,,,
"O=C1NC(=O)c2ccc(-c3ccc(Cl)cc3)cc2/C1=C/Nc1ccc(CN2CCCCC2)cc1 [Example 111, (4Z)-6-(4-Chlorophenyl)-4-({[4-(piperidin-1-ylmethyl)phenyl]amino}methylene)isoquinoline-1,3(2H,4H)-dione]",19.4,> 50,2.8,1.2,1.2,2.1,,,,,,
"O=C1NC(=O)c2ccc(I)cc2/C1=C/NCc1ccc(-c2cccnc2)c(O)c1 [Example 515, 4-[(3-Hydroxy-4-pyridin-3-yl-benzylamino)-methylene]-6-iodo-4H-isoquinoline-1,3-dione]",,,,,,,,0.34,0.44,0.38,1.1,IC50 (cyclin E/CDK2 enzyme): 3.6 µM
"CN1CC2CC1CN2c1ccc(NC=C2C(=O)NC(=O)c3ccc(I)cc32)cc1 (centres unmarked) [Example 221, 6-Iodo-4-{[4-(5-methyl-2,5-diaza-bicyclo[2.2.1]hept-2-yl)-phenylamino]-methylene}-4H-isoquinoline-1,3-dione]",0.32,> 50,3.2,1.9,3.2,2.6,,,,,,
"CN1CCN(c2ccc(NC=C3C(=O)NC(=O)c4ccc(-c5ccco5)cc43)cc2)CC1 [Example 830, 6-Furan-2-yl-4-{[4-(4-methyl-piperazin-1-yl)-phenylamino]-methylene}-4H-isoquinoline-1,3-dione]",,,,,,,0.17,1.2,2.7,3.6,3.3,IC50 (cyclin B/CDK1 enzyme; [12]): > 50 µM
"COc1ccc(-c2ccc3c(c2)/C(=C/Nc2ccc(CN4CCCCC4)cc2)C(=O)NC3=O)cc1 [Example 116, (4Z)-6-(4-Methoxyphenyl)-4-({[4-(piperidin-1-ylmethyl)phenyl]amino}methylene)-isoquinoline-1,3(2H,4H)-dione]",,> 50,2.8,1.3,2.8,3.2,,,,,,
"O=C1NC(=O)c2ccc(I)cc2/C1=C/NCc1ccn(-c2ccccc2)c(=O)c1 [Example 518, (4Z)-6-Iodo-4-({[(2-oxo-1-phenyl-1,2-dihydropyridin-4-yl)methyl]amino}methylene)isoquinoline-1,3(2H,4H)-dione]",,,,,,,0.11,,,,,"IC50 (cyclin B/CDK1 enzyme; [12]): > 50 µM; IC50 (BT474; BT474 cells, 6 days, SRB): 0.08 µM; IC50 (HCT-116; HCT116 cells, 3 days, SRB): 0.23 µM; IC50 (LoVo; LoVo cells, 3 days, SRB): 0.15 µM; IC50 (MCF-7; MCF-7 cells, 3 days, SRB): 0.64 µM"
CN1CCN(c2ccc(N/C=C3\C(=O)NC(=O)c4ccc(-n5cccc5)cc43)cc2)CC1 [compound 60],,> 50,,,,,,,,,,"IC50 (BT474; Homo sapiens, BT-474, 144 h): 2 µM; IC50 (HCT-116; Homo sapiens, HCT-116, 72 h): 1.5 µM; IC50 (LoVo; Homo sapiens, LoVo, 72 h): 2 µM; IC50 (MCF-7; Homo sapiens, MCF7, 72 h): 2.3 µM"
"COc1ccc(CNC=C2C(=O)NC(=O)c3ccc(-c4ccc5ccccc5c4)cc32)cc1O [Example 834, 4-[(3-Hydroxy-4-methoxy-benzylamino)-methylene]-6-naphthalen-2-yl-4H-isoquinoline-1,3-dione]",,,,,,,0.29,13.2,29.6,23.1,18.6,IC50 (cyclin B/CDK1 enzyme; [12]): > 50 µM
"O=C1NC(=O)c2ccc(-c3ccoc3)cc2/C1=C/NCc1ccc(OC(F)F)c(O)c1 [Example 199, (4Z)-4-({[4-(Difluoromethoxy)-3-hydroxybenzyl]amino}methylene)-6-(3-furyl)isoquinoline-1,3(2H,4H)-dione]",< 0.005,> 50,1.3,6.4,4.1,1.9,,,,,,
